Our source for the GI50 and TGI values is PubChem BioAssay (NCI).

Among the test systems are MOLT-4 leukemia; NCI-H23 lung; NCI-H522 lung; SNB-75 CNS; HCT-15 colon; CCRF-CEM leukemia; TK-10 renal; NCI-H226 lung; SR leukemia; MDA-MB-231 breast.
Holding throughout (test): NCI anticancer screen, dose series, 48 h

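Tested at 5 concentrations; 48 h exposure; 96-well plates; endpoints linearly interpolated, else capped at highest concentration. GI50 marks 50% less growth. TGI denotes the concentration required for complete inhibition of growth.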

Regarding `C1=Cc2ccccc2Nc2ccccc21`, the GI50 with MOLT-4 leukemia, in the assay on NCI-H23 lung, in the assay with NCI-H522 lung, in the assay with SNB-75 CNS, in the assay on HCT-15 colon and in the assay on CCRF-CEM leukemia was above 100 µM in each case. Besides, the GI50 in the assay on TK-10 renal, in the assay on NCI-H226 lung, in the assay with SR leukemia and in the assay on MDA-MB-231 breast was above 100 µM each time. For the same compound, the TGI with MOLT-4 leukemia, with NCI-H23 lung, with NCI-H522 lung, in the assay with SNB-75 CNS, in the assay on HCT-15 colon and in the assay with CCRF-CEM leukemia was above 100 µM in each case. The TGI with TK-10 renal, with NCI-H226 lung, with SR leukemia and in the assay on MDA-MB-231 breast was above 100 µM each time.
With `C[n+]1c(/C=C\c2ccc(Cl)cc2)ccc2ccccc21`, the GI50 with MOLT-4 leukemia was above 100 µM; in the assay on NCI-H23 lung, 31 µM; in the assay with NCI-H522 lung, 12.4 µM; in the assay with SNB-75 CNS, 23.2 µM; with HCT-15 colon it was 53.2 µM; in the assay with CCRF-CEM leukemia it was 32.4 µM. Further, the GI50 with TK-10 renal is above 100 µM; with NCI-H226 lung it was 72.1 µM; in the assay with SR leukemia it was 45.8 µM; in the assay with MDA-MB-231 breast it was 38.9 µM. Moreover, the TGI with MOLT-4 leukemia was above 100 µM; in the assay on NCI-H23 lung, above 100 µM; with NCI-H522 lung, 89.4 µM; in the assay with SNB-75 CNS, above 100 µM; in the assay with HCT-15 colon, above 100 µM; in the assay on CCRF-CEM leukemia it was above 100 µM. The TGI in the assay with TK-10 renal, in the assay with NCI-H226 lung, in the assay on SR leukemia and with MDA-MB-231 breast was above 100 µM throughout.
On to `CCOc1cccc(/C=N/NC(=O)c2ccc(Nc3ccnc(C(F)(F)F)c3)cc2)c1O`, for which the GI50 in the assay with MOLT-4 leukemia was 0.244 µM; in the assay with NCI-H23 lung, 2.26 µM; in the assay with NCI-H522 lung, 16.9 µM; in the assay with SNB-75 CNS, 3.34 µM; with HCT-15 colon it was 0.515 µM; with CCRF-CEM leukemia, 0.332 µM. The GI50 in the assay with TK-10 renal is 2.48 µM; in the assay on NCI-H226 lung, 2.08 µM; in the assay on SR leukemia, 0.236 µM; in the assay with MDA-MB-231 breast, 1.7 µM. The TGI in the assay on NCI-H23 lung is 38.6 µM; in the assay on NCI-H522 lung, above 82.8 µM; with SNB-75 CNS, above 67.5 µM; with HCT-15 colon, above 100 µM; in the assay with CCRF-CEM leukemia, 8.36 µM; with TK-10 renal, above 100 µM. Besides, the results for the TGI with NCI-H226 lung, in the assay with SR leukemia and with MDA-MB-231 breast were 22.5 µM, above 100 µM and above 100 µM, respectively.
With `CCOc1c(Br)cc(C2C(C(=O)OC)=CN(C)C=C2C(=O)OC)cc1OC`, the GI50 was 38.9 µM in the assay on MOLT-4 leukemia; 84.9 µM in the assay with NCI-H23 lung; 39.7 µM in the assay with NCI-H522 lung; 26.1 µM with SNB-75 CNS; 33.9 µM in the assay on HCT-15 colon; 40.1 µM with CCRF-CEM leukemia. The GI50 in the assay on TK-10 renal is above 100 µM; in the assay with NCI-H226 lung, 86.3 µM; in the assay on SR leukemia, 30.6 µM; in the assay on MDA-MB-231 breast, 32.8 µM. The TGI in the assay on MOLT-4 leukemia, in the assay on NCI-H23 lung, with NCI-H522 lung, with SNB-75 CNS, in the assay on HCT-15 colon and in the assay on CCRF-CEM leukemia was above 100 µM throughout. Besides, the TGI in the assay on TK-10 renal, with NCI-H226 lung, in the assay on SR leukemia and in the assay on MDA-MB-231 breast was above 100 µM throughout.
For `C[C@@H]1CN(C(=O)c2ccc(NC(=O)c3cc(O[C@H](C)c4c(Cl)ccc(F)c4Cl)c(N)nn3)cc2)C[C@H](C)N1`, the GI50 was 0.907 µM with MOLT-4 leukemia; 3.17 µM with NCI-H23 lung; 3.1 µM in the assay with NCI-H522 lung; 2.8 µM in the assay with SNB-75 CNS; 3.92 µM in the assay on HCT-15 colon; 1.78 µM with CCRF-CEM leukemia. The GI50 in the assay with TK-10 renal was 11.5 µM; with NCI-H226 lung, 3.9 µM; in the assay with SR leukemia, 0.0104 µM; in the assay with MDA-MB-231 breast, 2.1 µM. The TGI in the assay with MOLT-4 leukemia was 10.4 µM; in the assay with NCI-H23 lung it was 20.6 µM; in the assay on NCI-H522 lung, 12.2 µM; in the assay on SNB-75 CNS, 11.1 µM; with HCT-15 colon, 15.1 µM; in the assay with CCRF-CEM leukemia, 12 µM. Also, the TGI was found to be 23.6 µM with TK-10 renal, 22.5 µM in the assay with NCI-H226 lung, 2.78 µM in the assay with SR leukemia and 8 µM with MDA-MB-231 breast.
With `O=[N+]([O-])c1ccc(Br)c([N+](=O)[O-])c1`, the GI50 with MOLT-4 leukemia is 2.52 µM; in the assay on NCI-H23 lung, 1.82 µM; in the assay with NCI-H522 lung, 0.163 µM; in the assay on SNB-75 CNS, 1.69 µM; in the assay on HCT-15 colon, 1.93 µM; in the assay on CCRF-CEM leukemia, 1.79 µM. For the same compound, the GI50 was 2.3 µM with TK-10 renal, 8.36 µM in the assay with NCI-H226 lung, 1.56 µM with SR leukemia and 2.68 µM with MDA-MB-231 breast. Further, the TGI in the assay with MOLT-4 leukemia was 6.71 µM; in the assay on NCI-H23 lung, 3.66 µM; in the assay with NCI-H522 lung, 0.355 µM; in the assay on SNB-75 CNS it was 4.36 µM; with HCT-15 colon, 4.59 µM; with CCRF-CEM leukemia, 6.83 µM. Moreover, the TGI in the assay on TK-10 renal turned out to be 6.22 µM; with NCI-H226 lung it was 23.5 µM; in the assay on SR leukemia, 5.64 µM; in the assay on MDA-MB-231 breast, 7.12 µM.
For `COC(=O)Nc1nc2ccc(Oc3ccc(NC(=O)Nc4cccc(C(=O)O)c4)cc3)cc2[nH]1`, the GI50 is 9.99 µM in the assay with MOLT-4 leukemia; 9.64 µM in the assay on NCI-H23 lung; 4 µM in the assay on NCI-H522 lung; 9.98 µM in the assay on SNB-75 CNS; 6.49 µM in the assay on HCT-15 colon; 7.02 µM in the assay with CCRF-CEM leukemia. The GI50 is above 23.1 µM in the assay on TK-10 renal, 5.2 µM with NCI-H226 lung, 2.41 µM in the assay on SR leukemia and 11.5 µM in the assay with MDA-MB-231 breast. Also, the TGI in the assay with MOLT-4 leukemia was above 25 µM; in the assay with NCI-H23 lung, above 25 µM; with NCI-H522 lung, above 19 µM; with SNB-75 CNS, above 25 µM; in the assay with HCT-15 colon, above 25 µM; in the assay on CCRF-CEM leukemia, above 25 µM. The TGI with TK-10 renal, in the assay with NCI-H226 lung, in the assay on SR leukemia and in the assay on MDA-MB-231 breast was above 25 µM each time.
